Among the data in ChEMBL document CHEMBL4033663, “Design, combinatorial synthesis and biological evaluations of novel 3-amino-1'-((1-aryl-1H-1,2,3-triazol-5-yl)methyl)-2'-oxospiro[benzo[a] pyrano[2,3-c]phenazine-1,3'-indoline]-2-carbonitrile antitumor hybrid molecules” (Eur J Med Chem, 2017) are IC50 values, retold here.

In one assay the test system is L02. As to the kind of experiment: Antiproliferative activity against human L02 cells after 48 hrs by MTT assay. The class given is cell-based. The settings on record: L02, 48 h. (Tetrazolium dyes change colour on reduction, which living cells bring about.)
Broadly, the IC50 is the concentration needed to halve the response being measured. Higher therefore signals weaker potency. The compound `Cc1ccc(Cl)cc1-n1nncc1CN1C(=O)C2(C(C#N)=C(N)Oc3c2c2nc4ccccc4nc2c2ccccc32)c2ccccc21` (configuration not stated) had an IC50 greater than 50 µM.

`N#CC1=C(N)Oc2c(c3nc4ccccc4nc3c3ccccc23)C12C(=O)N(Cc1cnnn1-c1ccc(F)c(Cl)c1)c1ccccc12` (configuration not stated) returned an IC50 greater than 50 µM.

In the case of `Cc1ccccc1-n1nncc1CN1C(=O)C2(C(C#N)=C(N)Oc3c(N)cc4nc5ccccc5nc4c32)c2ccccc21` (configuration not stated), the IC50 is greater than 50 µM.

As to `Cc1ccc(-n2nncc2CN2C(=O)C3(C(C#N)=C(N)Oc4c(N)cc5nc6ccccc6nc5c43)c3ccccc32)cc1C` (configuration not stated), the 50% inhibitory concentration (IC50) was greater than 50 µM.

In the case of `N#CC1=C(N)Oc2c(N)cc3nc4ccccc4nc3c2C12C(=O)N(Cc1cnnn1-c1ccc(Cl)cc1)c1ccccc12` (configuration not stated), the half-maximal inhibitory concentration (IC50) was greater than 50 µM.

In turn, `Cc1cccc(-n2nncc2CN2C(=O)C3(C(C#N)=C(N)Oc4c(N)cc5nc6ccccc6nc5c43)c3ccccc32)c1` (configuration not stated) had a 50% inhibitory concentration (IC50) greater than 50 µM.

The compound `N#CC1=C(N)Oc2c(N)cc3nc4ccccc4nc3c2C12C(=O)N(Cc1cnnn1-c1ccc([N+](=O)[O-])cc1)c1ccccc12` (configuration not stated) yielded an IC50 greater than 50 µM.

Another assay relates to MCF7. As to the kind of experiment: Antiproliferative activity against human MCF7 cells after 48 hrs by MTT assay. In kind it is functional, cell-based. The settings on record: MCF7, 48 h.
The compound `Cc1ccc(Cl)cc1-n1nncc1CN1C(=O)C2(C(C#N)=C(N)Oc3c2c2nc4ccccc4nc2c2ccccc32)c2ccccc21` (configuration not stated) registered an IC50 greater than 50 µM.

`N#CC1=C(N)Oc2c(c3nc4ccccc4nc3c3ccccc23)C12C(=O)N(Cc1cnnn1-c1ccc(F)c(Cl)c1)c1ccccc12` (configuration not stated) yielded an IC50 greater than 50 µM.

For `Cc1ccccc1-n1nncc1CN1C(=O)C2(C(C#N)=C(N)Oc3c(N)cc4nc5ccccc5nc4c32)c2ccccc21` (configuration not stated), the IC50 is greater than 50 µM.

Consider `Cc1ccc(-n2nncc2CN2C(=O)C3(C(C#N)=C(N)Oc4c(N)cc5nc6ccccc6nc5c43)c3ccccc32)cc1C` (configuration not stated), for which the IC50 is greater than 50 µM.

`N#CC1=C(N)Oc2c(N)cc3nc4ccccc4nc3c2C12C(=O)N(Cc1cnnn1-c1ccc(Cl)cc1)c1ccccc12` (configuration not stated) returned a half-maximal inhibitory concentration (IC50) greater than 50 µM.

For the compound `Cc1cccc(-n2nncc2CN2C(=O)C3(C(C#N)=C(N)Oc4c(N)cc5nc6ccccc6nc5c43)c3ccccc32)c1` (configuration not stated), the half-inhibitory concentration (IC50) was greater than 50 µM.

As to `N#CC1=C(N)Oc2c(N)cc3nc4ccccc4nc3c2C12C(=O)N(Cc1cnnn1-c1ccc([N+](=O)[O-])cc1)c1ccccc12` (configuration not stated), the IC50 is greater than 50 µM.

The subject of the next assay is A549. The assay can be described thus: Antiproliferative activity against human A549 cells after 48 hrs by MTT assay. The class given is functional, cell-based. The settings on record: A549, 48 h.
The compound `Cc1ccc(Cl)cc1-n1nncc1CN1C(=O)C2(C(C#N)=C(N)Oc3c2c2nc4ccccc4nc2c2ccccc32)c2ccccc21` (configuration not stated) displayed an IC50 greater than 50 µM.

`N#CC1=C(N)Oc2c(c3nc4ccccc4nc3c3ccccc23)C12C(=O)N(Cc1cnnn1-c1ccc(F)c(Cl)c1)c1ccccc12` (configuration not stated) yielded a half-maximal inhibitory concentration (IC50) greater than 50 µM.

For the compound `Cc1ccccc1-n1nncc1CN1C(=O)C2(C(C#N)=C(N)Oc3c(N)cc4nc5ccccc5nc4c32)c2ccccc21` (configuration not stated), inhibition was half-maximal at 31.7 µM (IC50).

On to `Cc1ccc(-n2nncc2CN2C(=O)C3(C(C#N)=C(N)Oc4c(N)cc5nc6ccccc6nc5c43)c3ccccc32)cc1C` (configuration not stated), for which the IC50 was greater than 50 µM.

In turn, `N#CC1=C(N)Oc2c(N)cc3nc4ccccc4nc3c2C12C(=O)N(Cc1cnnn1-c1ccc(Cl)cc1)c1ccccc12` (configuration not stated) had a half-inhibitory concentration (IC50) greater than 50 µM.

Compound `Cc1cccc(-n2nncc2CN2C(=O)C3(C(C#N)=C(N)Oc4c(N)cc5nc6ccccc6nc5c43)c3ccccc32)c1` (configuration not stated) came in with an IC50 of 12.3 µM.

Turning to `N#CC1=C(N)Oc2c(N)cc3nc4ccccc4nc3c2C12C(=O)N(Cc1cnnn1-c1ccc([N+](=O)[O-])cc1)c1ccccc12` (configuration not stated), the concentration for half-maximal inhibition (IC50) is greater than 50 µM.

A further assay has as its system HepG2. The assay can be described thus: Antiproliferative activity against human HepG2 cells after 48 hrs by MTT assay. In kind it is functional, cell-based. To be noted: HepG2, 48 h.
In turn, `Cc1ccc(Cl)cc1-n1nncc1CN1C(=O)C2(C(C#N)=C(N)Oc3c2c2nc4ccccc4nc2c2ccccc32)c2ccccc21` (configuration not stated) came in with an IC50 greater than 50 µM.

Take `N#CC1=C(N)Oc2c(c3nc4ccccc4nc3c3ccccc23)C12C(=O)N(Cc1cnnn1-c1ccc(F)c(Cl)c1)c1ccccc12` (configuration not stated): the IC50 was greater than 50 µM.

For the compound `Cc1ccccc1-n1nncc1CN1C(=O)C2(C(C#N)=C(N)Oc3c(N)cc4nc5ccccc5nc4c32)c2ccccc21` (configuration not stated), the IC50 was greater than 50 µM.

`Cc1ccc(-n2nncc2CN2C(=O)C3(C(C#N)=C(N)Oc4c(N)cc5nc6ccccc6nc5c43)c3ccccc32)cc1C` (configuration not stated) returned an IC50 greater than 50 µM.

`N#CC1=C(N)Oc2c(N)cc3nc4ccccc4nc3c2C12C(=O)N(Cc1cnnn1-c1ccc(Cl)cc1)c1ccccc12` (configuration not stated) yielded a half-inhibitory concentration (IC50) greater than 50 µM.

With `Cc1cccc(-n2nncc2CN2C(=O)C3(C(C#N)=C(N)Oc4c(N)cc5nc6ccccc6nc5c43)c3ccccc32)c1` (configuration not stated), the 50% inhibitory concentration (IC50) was greater than 50 µM.

Regarding `N#CC1=C(N)Oc2c(N)cc3nc4ccccc4nc3c2C12C(=O)N(Cc1cnnn1-c1ccc([N+](=O)[O-])cc1)c1ccccc12` (configuration not stated), the half-maximal inhibitory concentration (IC50) is greater than 50 µM.

For the next assay, the system named is HCT-116. The assay can be described thus: Antiproliferative activity against human HCT116 cells after 48 hrs by MTT assay. The class given is functional, cell-based. To be noted: HCT-116, 48 h.
With `Cc1ccc(Cl)cc1-n1nncc1CN1C(=O)C2(C(C#N)=C(N)Oc3c2c2nc4ccccc4nc2c2ccccc32)c2ccccc21` (configuration not stated), the IC50 is greater than 50 µM.

Compound `N#CC1=C(N)Oc2c(c3nc4ccccc4nc3c3ccccc23)C12C(=O)N(Cc1cnnn1-c1ccc(F)c(Cl)c1)c1ccccc12` (configuration not stated) gave a half-inhibitory concentration (IC50) greater than 50 µM.

Take `Cc1ccccc1-n1nncc1CN1C(=O)C2(C(C#N)=C(N)Oc3c(N)cc4nc5ccccc5nc4c32)c2ccccc21` (configuration not stated): the half-inhibitory concentration (IC50) is greater than 50 µM.

`Cc1ccc(-n2nncc2CN2C(=O)C3(C(C#N)=C(N)Oc4c(N)cc5nc6ccccc6nc5c43)c3ccccc32)cc1C` (configuration not stated) returned a half-inhibitory concentration (IC50) greater than 50 µM.

For `N#CC1=C(N)Oc2c(N)cc3nc4ccccc4nc3c2C12C(=O)N(Cc1cnnn1-c1ccc(Cl)cc1)c1ccccc12` (configuration not stated), the IC50 was greater than 50 µM.

The compound `Cc1cccc(-n2nncc2CN2C(=O)C3(C(C#N)=C(N)Oc4c(N)cc5nc6ccccc6nc5c43)c3ccccc32)c1` (configuration not stated) came in with an IC50 greater than 50 µM.

With `N#CC1=C(N)Oc2c(N)cc3nc4ccccc4nc3c2C12C(=O)N(Cc1cnnn1-c1ccc([N+](=O)[O-])cc1)c1ccccc12` (configuration not stated), the concentration for half-maximal inhibition (IC50) was greater than 50 µM.

The subject of another assay is HUVEC. As to the kind of experiment: Antiproliferative activity against human HUVEC cells after 48 hrs by MTT assay. In kind it is cell-based.
Details: not given
Take `Cc1ccc(Cl)cc1-n1nncc1CN1C(=O)C2(C(C#N)=C(N)Oc3c2c2nc4ccccc4nc2c2ccccc32)c2ccccc21` (configuration not stated): the IC50 is greater than 50 µM.

In turn, `N#CC1=C(N)Oc2c(c3nc4ccccc4nc3c3ccccc23)C12C(=O)N(Cc1cnnn1-c1ccc(F)c(Cl)c1)c1ccccc12` (configuration not stated) returned a half-maximal inhibitory concentration (IC50) greater than 50 µM.

Compound `Cc1ccccc1-n1nncc1CN1C(=O)C2(C(C#N)=C(N)Oc3c(N)cc4nc5ccccc5nc4c32)c2ccccc21` (configuration not stated) yielded an IC50 greater than 50 µM.

Turning to `Cc1ccc(-n2nncc2CN2C(=O)C3(C(C#N)=C(N)Oc4c(N)cc5nc6ccccc6nc5c43)c3ccccc32)cc1C` (configuration not stated), the IC50 was greater than 50 µM.

In turn, `N#CC1=C(N)Oc2c(N)cc3nc4ccccc4nc3c2C12C(=O)N(Cc1cnnn1-c1ccc(Cl)cc1)c1ccccc12` (configuration not stated) came in with an IC50 greater than 50 µM.

For `Cc1cccc(-n2nncc2CN2C(=O)C3(C(C#N)=C(N)Oc4c(N)cc5nc6ccccc6nc5c43)c3ccccc32)c1` (configuration not stated), the 50% inhibitory concentration (IC50) is greater than 50 µM.

On to `N#CC1=C(N)Oc2c(N)cc3nc4ccccc4nc3c2C12C(=O)N(Cc1cnnn1-c1ccc([N+](=O)[O-])cc1)c1ccccc12` (configuration not stated), for which the IC50 is greater than 50 µM.
